Each block holds one molecule with its values, some of them ahead of it.
Assay: solvent given as SMILES

Compound: CCn1c2ccccc2c2cc(-c3cc(-c4ccc5c(c4)c4ccccc4n5CC)nc(C#N)n3)ccc21
emission maximum (in C1CCOC1): 427 nm | emission maximum (in CCOC(C)=O): 422 nm | emission maximum (in CN(C)C=O): 455 nm | emission maximum (in Cc1ccccc1): 404 nm | emission maximum (in ClCCl): 435 nm

Compound: Cc1cc(-c2cccc3ccccc23)cc(C)[o+]1
emission maximum (in ClCCl): 554 nm

Compound: N#Cc1ccc2nc3c(=O)[nH]c(=O)[nH]c3nc2c1
emission maximum (in ClCCCl): 430 nm

Compound: COc1ccccc1CC(=O)OCc1c(C)c(=O)n2c(=O)c(C)c(C)n12
emission maximum (in CCO): 461 nm

Compound: CCOC(=O)c1cc2ccc3ccccc3c2c(C#N)c1N
emission maximum (in Cc1ccccc1): 461 nm

Compound: c1ccc2c(c1)c1ccccc1n2-c1ccc(-c2cc3ccc(-c4ccc5cc(-c6ccc(-n7c8ccccc8c8ccccc87)cc6)oc5c4)cc3o2)cc1
emission maximum (in Cc1ccccc1): 407 nm | emission maximum (in c1ccc2c(c1)c1ccccc1n2-c1ccc(-c2ccc(-n3c4ccccc4c4ccccc43)cc2)cc1): 419 nm

Compound: c1ccc(B2Nc3cc4c(cc3-c3sccc32)NB(c2ccccc2)c2ccsc2-4)cc1
emission maximum (in ClCCl): 412 nm

Compound: CC1(C)c2ccccc2N(c2ccccc2)c2ccc(-c3nc(-c4ccccc4)nc(-c4ccccc4)n3)cc21
emission maximum (in Cc1ccccc1): 430.68 nm | emission maximum (in O=P(c1ccccc1)(c1ccccc1)c1ccccc1Oc1ccccc1P(=O)(c1ccccc1)c1ccccc1): 452 nm

Compound: CC(C)[Si](C#Cc1ccc(-c2c3cccc4c5cccc6c(-c7ccc(C#C[Si](C(C)C)(C(C)C)C(C)C)cc7)c7cccc8c9cccc2c9c(c34)c(c65)c78)cc1)(C(C)C)C(C)C
emission maximum (in Cc1ccccc1): 744 nm

Compound: CC(C)(C)c1ccc(-c2cc(-c3ccc(-c4cc(-c5ccc(C(C)(C)C)cc5)c(C#N)s4)s3)sc2C#N)cc1
emission maximum (in ClCCl): 443 nm

Compound: c1cc2c3c(c1)-c1cccc4ccn(c14)B3n1ccc3cccc-2c31
emission maximum (in C1CCOC1): 387 nm

Compound: N#Cc1nc2cnc(N)nc2n1Cc1ccccc1
emission maximum (in C1COCCO1): 381 nm | emission maximum (in CC#N): 381 nm | emission maximum (in CO): 398 nm | emission maximum (in ClCCl): 381 nm | emission maximum (in O): 406 nm

Compound: C1=Cc2ccccc2C(=Cc2ccc(-c3ccc(C=C4c5ccccc5C=Cc5ccccc54)cc3)cc2)c2ccccc21
emission maximum (in C1CCOC1): 405 nm

Compound: Cc1ccc(-c2c3nc(c(-c4ccc(C)cc4)c4ccc([nH]4)c(-c4ccc(C)cc4)c4nc(c(-c5ccc(C)cc5)c5ccc2[nH]5)C=C4N2CCOCC2)C=C3)cc1
emission maximum (in CS(C)=O): 666 nm

Compound: COc1ccc2c3ccc(OC)cc3n(-c3ccc(-c4nnc(-c5c(C)cc(C)cc5C)o4)cc3C)c2c1
emission maximum (in Cc1ccccc1): 436 nm

Compound: O=C(O)c1ccccc1-c1nc(-c2ccccc2)c2ccccn12
emission maximum (in CC#N): 494 nm

Compound: Cc1ccc(-c2cnc3nn4ccccc4c3n2)cc1
emission maximum (in C1CCOC1): 450 nm

Compound: COc1ccc(C2=C/C(=C\c3ccc([N+](=O)[O-])cc3)C(=O)N2CC(C)C)cc1
emission maximum (in C1COCCO1): 616 nm

Compound: c1ccc2c(c1)c1ccccc1c1ccccc21
emission maximum (in ClCCl): 355 nm

Compound: CCCC1=C(CCC)c2cccc3c2c(cc2nc4ccccc4nc23)O1
emission maximum (in ClCCl): 563 nm

Compound: CC(C)(C)C#Cc1ccc2c3cccc4cccc(c5cccc1c52)c43
emission maximum (in C1CCCCC1): 459.88 nm

Compound: CCCCCn1c2cc(/C=C/c3ccc(N(c4ccccc4)c4ccccc4)cc3)ccc2c2ccc(/C=C/c3ccc(N(c4ccccc4)c4ccccc4)cc3)cc21
emission maximum (in Cc1ccccc1): 451 nm

Compound: C(=N\c1ccc(-c2cn3nc(-c4cccs4)sc3n2)cc1)/c1ccc(N(c2ccccc2)c2ccccc2)cc1
emission maximum (in ClC(Cl)Cl): 552 nm

Compound: CC1=CC(C)=[N+]2C1=C(c1ccc(C(=O)OC3C[C@@H]4CC[C@]3(C)C4(C)C)cc1)c1c(C)cc(C)n1[B-]2(F)F (stereo partly specified)
emission maximum (in Cc1ccccc1): 518 nm

Compound: Brc1ccc2[nH]c(-c3ccc(-c4ccc(-c5ccc(-c6nc7cc(Br)ccc7[nH]6)cc5)cc4)cc3)nc2c1
emission maximum (in CN(C)C=O): 410 nm

Compound: Cc1ccc(/C(C#N)=C/c2cc(/C=C(\C#N)c3ccc(C)cc3)c(-c3ccc(N(c4ccccc4)c4ccccc4)cc3)cc2-c2ccc(N(c3ccccc3)c3ccccc3)cc2)cc1
emission maximum (in C1CCCCC1): 453 nm | emission maximum (in C1CCOC1): 538 nm | emission maximum (in CCCCCC): 453 nm | emission maximum (in CCOC(C)=O): 533 nm | emission maximum (in Cc1ccccc1): 480 nm | emission maximum (in ClC(Cl)Cl): 517 nm | emission maximum (in ClCCl): 552 nm

Compound: O=C1[C@@H]2[C@H](C(=O)N1c1cccc3cc4ccccc4cc13)[C@H]1C[C@@H]2c2c1c(-c1ccccc1)c1ccccc1c2-c1ccccc1
emission maximum (in ClC(Cl)Cl): 392 nm

Compound: O=C(O)CCCc1ccc2ccc3cccc4ccc1c2c34
emission maximum (in CO): 375 nm

Compound: CCN(CC)c1ccc(-c2nc(Oc3ccc(-c4nc5ccccc5[nH]4)cc3)nc(Oc3ccc(-c4nc5ccccc5[nH]4)cc3)n2)cc1
emission maximum (in CN(C)C=O): 431 nm

Compound: Cc1ccc(NC(=O)c2sc(Br)nc2C)cc1
emission maximum (in C1CCOC1): 407.5 nm | emission maximum (in CC#N): 399.5 nm | emission maximum (in CCCCCC): 399 nm | emission maximum (in CCOC(C)=O): 404.5 nm | emission maximum (in CN(C)C=O): 451 nm | emission maximum (in CO): 403 nm | emission maximum (in CS(C)=O): 401.5 nm | emission maximum (in ClC(Cl)Cl): 412.4 nm

Compound: CCCCCCN1C(=O)c2cccc3cc(/N=C\c4c[nH]c5c4ccc4ccccc45)cc(c23)C1=O
emission maximum (in ClC(Cl)Cl): 501 nm

Compound: CCN(CC)c1ccc(C2=C3C(C)=CC(/C=C/c4ccc(OCC(=O)OC)cc4)=[N+]3[B-](F)(F)n3c(C)cc(C)c32)cc1
emission maximum (in CO): 581 nm

Other lines, results leading:

emission maximum (in ClCCl): 613 nm
Compound: CCCCN1C(=O)C2=C(c3ccc(Br)cc3)[N-]C(=O)C2=C1c1ccc(Br)cc1

emission maximum (in C1CCCCC1): 491 nm | emission maximum (in CC#N): 557 nm | emission maximum (in CCO): 592 nm | emission maximum (in c1ccccc1): 526 nm
Compound: CN(C)c1ccc2c(c1)-c1ccccc1C2=O

emission maximum (in CCCCO): 477 nm | emission maximum (in CCCO): 479 nm | emission maximum (in CCO): 485 nm | emission maximum (in CO): 490 nm | emission maximum (in OCC(O)CO): 501 nm | emission maximum (in OCCO): 495 nm
Compound: O=S(=O)(O)c1cccc2cccc(Nc3ccccc3)c12

emission maximum (in ClCCl): 541 nm
Compound: N#Cc1cc(-c2ccc(/C=C/c3ccc(N(c4ccccc4)c4ccccc4)cc3)c(C#N)c2)ccc1/C=C/c1ccc(N(c2ccccc2)c2ccccc2)cc1

emission maximum (in ClCCl): 408 nm
Compound: N#Cc1ccc(-n2c(-c3ccc(-c4ccc(N(c5ccccc5)c5ccccc5)cc4)s3)nc3c4ccccc4c4ccccc4c32)c2ccccc12

emission maximum (in C1CCOC1): 487 nm
Compound: COc1cc2c(cc1-c1ccsc1)Cc1c3c(c4c(c1-2)-c1cc(OC)c(-c2ccsc2)cc1C4)C(=O)N(CCC(C)C)C3=O

emission maximum (in O): 680 nm
Compound: COc1ccc2c(c1)CCC1=C(c3ccccc3)C3=C(c4ccc5cccc(O)c5n4)c4c(-c5ccccc5)c5c(n4[B-](F)(F)[N+]3=C12)-c1ccc(OC)cc1CC5

emission maximum (in CO): 396 nm
Compound: Brc1cnc(-c2ccncc2)s1

emission maximum (in ClCCl): 580 nm
Compound: CC1=C(I)C(C)=[N+]2C1=C(c1c(-c3ccccn3)nc3ccccn13)c1c(C)c(I)c(C)n1[B-]2(F)F

emission maximum (in ClCCl): 425 nm
Compound: COC(=O)C1=C(C(=O)OC)C2(c3ccccc3-c3ccccc32)[C@@H](c2ccc(C)cc2)C=C2c3cc(OC)c(OC)cc3CCN21

emission maximum (in ClC(Cl)Cl): 533 nm
Compound: O=Cc1ccc(C#CC(C#Cc2ccc(C=O)s2)=Cc2ccc(C=C(C#Cc3ccc(C=O)s3)C#Cc3ccc(C=O)s3)cc2)s1

emission maximum (in C1CCCCC1): 415 nm | emission maximum (in CC#N): 413 nm
Compound: C[Si](C)(c1ccc2cc3ccccc3cc2c1)[Si](C)(C)c1ccc2cc3ccccc3cc2c1

emission maximum (in ClCCl): 496 nm
Compound: CCCCCCn1c2cc(C=O)sc2c2sc3c(sc4c5sc(C=O)cc5n(CCCCCC)c43)c21

emission maximum (in CCO): 674 nm | emission maximum (in ClC(Cl)Cl): 664 nm | emission maximum (in O): 684 nm
Compound: CC[N+](CC)=c1ccc2c(-c3ccccc3C(=O)O)c3c(=O)oc4c5c6c(cc4c3oc-2c1)CCCN6CCC5

emission maximum (in ClC(Cl)Cl): 577 nm
Compound: N#Cc1nc(N(Cc2ccc(F)cc2)Cc2ccc(F)cc2)c(C#N)nc1N(Cc1ccc(F)cc1)Cc1ccc(F)cc1

— the Deep4Chem optical property database
